What follows are compounds tested on endogenous cellular STAT1 (phosphorylated at Tyr701) in NCI-H1373 cells (assay: Phospho-STAT1 (Tyr701) LANCE Ultra TR-FRET Detection Assay). Conditions: Homo sapiens, NCI-H1373, 48 h, phospho-STAT1 (Tyr701) induction, read-out: NH1373 pSTAT1 EC50.
Assay type: cell-based

SMILES | EC50
Nc1nc(-c2cc3ccn(CC[C@H]4CCC[C@@H]4Nc4cn[nH]c(=O)c4C(F)(F)F)c(=O)c3cc2F)ncc1C(F)(F)F [Example 178, 6-(4-amino-5-(trifluoromethyl)pyrimidin-2-yl)-7-fluoro-2-(2-((1R,2S)-2-((6-oxo-5-(trifluoromethyl)-1,6-dihydropyridazin-4-yl)amino)cyclopentyl)ethyl)isoquinolin-1(2H)-one] | 1.8 nM
COc1cnc(-c2cc3ccn(CCC[C@H](C)Nc4cn[nH]c(=O)c4C(F)(F)F)c(=O)c3cc2F)nc1N1CCC1 [Example 186, (S)-6-(4-(azetidin-1-yl)-5-methoxypyrimidin-2-yl)-7-fluoro-2-(4-((6-oxo-5-(trifluoromethyl)-1,6-dihydropyridazin-4-yl)amino)pentyl)isoquinolin-1(2H)-one] | 66.1 nM
C[C@@H](CCCn1ccc2cc(-c3ncc(C(F)(F)F)c(N4CCC4)n3)c(F)cc2c1=O)Nc1cn[nH]c(=O)c1C(F)(F)F [Example 187, (S)-6-(4-(azetidin-1-yl)-5-(trifluoromethyl)pyrimidin-2-yl)-7-fluoro-2-(4-((6-oxo-5-(trifluoromethyl)-1,6-dihydropyridazin-4-yl)amino)pentyl)isoquinolin-1(2H)-one] | 20.7 nM
COc1cnc(-c2cc3ncn(CCC[C@H](C)Nc4cn[nH]c(=O)c4C(F)(F)F)c(=O)c3cc2F)nc1N1CCC1 [Example 188, (S)-7-(4-(azetidin-1-yl)-5-methoxypyrimidin-2-yl)-6-fluoro-3-(4-((6-oxo-5-(trifluoromethyl)-1,6-dihydropyridazin-4-yl)amino)pentyl)quinazolin-4(3H)-one] | 42 nM
C[C@@H](CCCn1ccc2cc(-c3ncc(C(F)(F)F)c(N4CC(C)(O)C4)n3)c(F)cc2c1=O)Nc1cn[nH]c(=O)c1C(F)(F)F [Example 191, (S)-7-fluoro-6-(4-(3-hydroxy-3-methylazetidin-1-yl)-5-(trifluoromethyl)pyrimidin-2-yl)-2-(4-((6-oxo-5-(trifluoromethyl)-1,6-dihydropyridazin-4-yl)amino)pentyl)isoquinolin-1(2H)-one] | 26.9 nM
CCOc1cnc(-c2cc3ccn(CCC[C@H](C)Nc4cn[nH]c(=O)c4C(F)(F)F)c(=O)c3cc2F)nc1N [Example 192, (S)-6-(4-amino-5-ethoxypyrimidin-2-yl)-7-fluoro-2-(4-((6-oxo-5-(trifluoromethyl)-1,6-dihydropyridazin-4-yl)amino)pentyl)isoquinolin-1(2H)-one] | 2.24 nM
CCOc1ccc(-c2cc3ccn(CCC[C@H](C)Nc4cn[nH]c(=O)c4C(F)(F)F)c(=O)c3cc2F)nc1N [Example 193, (S)-6-(6-amino-5-ethoxypyridin-2-yl)-7-fluoro-2-(4-((6-oxo-5-(trifluoromethyl)-1,6-dihydropyridazin-4-yl)amino)pentyl)isoquinolin-1(2H)-one] | 22.3 nM
C[C@@H](CCCn1ccc2cc(-c3ncc(OC(F)F)c(N)n3)c(F)cc2c1=O)Nc1cn[nH]c(=O)c1C(F)(F)F [Example 194, (S)-6-(4-amino-5-(difluoromethoxy)pyrimidin-2-yl)-7-fluoro-2-(4-((6-oxo-5-(trifluoromethyl)-1,6-dihydropyridazin-4-yl)amino)pentyl)isoquinolin-1(2H)-one] | 6.6 nM
COc1ccc(-c2cc3ccn(CCC[C@H](C)Nc4cn[nH]c(=O)c4C(F)(F)F)c(=O)c3cc2F)nc1N [Example 195, (S)-6-(6-amino-5-methoxypyridin-2-yl)-7-fluoro-2-(4-((6-oxo-5-(trifluoromethyl)-1,6-dihydropyridazin-4-yl)amino)pentyl)isoquinolin-1(2H)-one] | 8.14 nM
[2H]C([2H])([2H])Oc1cnc(-c2cc3ccn(CCC[C@H](C)Nc4cn[nH]c(=O)c4C(F)(F)F)c(=O)c3cc2F)nc1N [Example 196, 6-[4-amino-5-(trideuteriomethoxy)pyrimidin-2-yl]-7-fluoro-2-[(4S)-4-[[6-oxo-5-(trifluoromethyl)-1H-pyridazin-4-yl]amino]pentyl]isoquinolin-1-one] | 6.13 nM
C[C@@H](CCCn1ccc2cc(-c3nccc(C(F)F)n3)c(F)cc2c1=O)Nc1cn[nH]c(=O)c1C(F)(F)F [Example 197, (S)-6-(4-(difluoromethyl)pyrimidin-2-yl)-7-fluoro-2-(4-((6-oxo-5-(trifluoromethyl)-1,6-dihydropyridazin-4-yl)amino)pentyl)isoquinolin-1(2H)-one] | 638 nM
C[C@@H](CCCn1ccc2cc(-c3nccc(N)n3)c(F)cc2c1=O)Nc1cn[nH]c(=O)c1C(F)(F)F [Example 198, (S)-6-(4-aminopyrimidin-2-yl)-7-fluoro-2-(4-((6-oxo-5-(trifluoromethyl)-1,6-dihydropyridazin-4-yl)amino)pentyl)isoquinolin-1(2H)-one] | 276 nM
C[C@@H](CCCn1ccc2cc(-c3ncc(N)cn3)c(F)cc2c1=O)Nc1cn[nH]c(=O)c1C(F)(F)F [Example 199, (S)-6-(5-aminopyrimidin-2-yl)-7-fluoro-2-(4-((6-oxo-5-(trifluoromethyl)-1,6-dihydropyridazin-4-yl)amino)pentyl)isoquinolin-1(2H)-one] | 317 nM

Continued, values first:

EC50 | SMILES
287 nM | C[C@@H]1C[C@@H](CCCn2ccc3cc(-c4ncc(C(F)(F)F)cn4)c(F)cc3c2=O)N(c2cn[nH]c(=O)c2C(F)(F)F)C1 [Example 174, 7-fluoro-2-(3-((2R,4R)-4-methyl-1-(6-oxo-5-(trifluoromethyl)-1,6-dihydropyridazin-4-yl)pyrrolidin-2-yl)propyl)-6-(5-(trifluoromethyl)pyrimidin-2-yl)isoquinolin-1(2H)-one]
57.5 nM | COc1cnc(-c2cc3ccn(CCC[C@@H]4C[C@@H](C)CN4c4cn[nH]c(=O)c4C(F)(F)F)c(=O)c3cc2F)nc1N [Example 175, 6-(4-amino-5-methoxypyrimidin-2-yl)-7-fluoro-2-[3-[(2R,4R)-4-methyl-1-[6-oxo-5-(trifluoromethyl)-1H-pyridazin-4-yl]pyrrolidin-2-yl]propyl]isoquinolin-1-one]
186 nM | C[C@@H]1C[C@@H](CCCn2cnc3cc(-c4ncc(C(F)(F)F)cn4)c(F)cc3c2=O)N(c2cn[nH]c(=O)c2C(F)(F)F)C1 [Example 176, 6-fluoro-3-[3-[(2R,4R)-4-methyl-1-[6-oxo-5-(trifluoromethyl)-1H-pyridazin-4-yl]pyrrolidin-2-yl]propyl]-7-[5-(trifluoromethyl)pyrimidin-2-yl]quinazolin-4-one]
537 nM | COc1cnc(-c2cc3ncn(CCC[C@@H]4C[C@@H](C)CN4c4cn[nH]c(=O)c4C(F)(F)F)c(=O)c3cc2F)nc1N [Example 177, 7-(4-amino-5-methoxypyrimidin-2-yl)-6-fluoro-3-[3-[(2R,4R)-4-methyl-1-[6-oxo-5-(trifluoromethyl)-1H-pyridazin-4-yl]pyrrolidin-2-yl]propyl]quinazolin-4-one]
4.03 nM | O=c1[nH]ncc(N[C@H]2CCC[C@@H]2CCn2ccc3cc(-c4ncc(C(F)(F)F)cn4)c(F)cc3c2=O)c1C(F)(F)F [Example 179, 7-fluoro-2-(2-((1R,2S)-2-((6-oxo-5-(trifluoromethyl)-1,6-dihydropyridazin-4-yl)amino)cyclopentyl)ethyl)-6-(5-(trifluoromethyl)pyrimidin-2-yl)isoquinolin-1(2H)-one]
1.89 nM | CCOC[C@@H](CCCn1ccc2cc(-c3ncc(C(F)(F)F)cn3)c(F)cc2c1=O)Nc1cn[nH]c(=O)c1C(F)(F)F [Example 180, (R)-2-(5-ethoxy-4-((6-oxo-5-(trifluoromethyl)-1,6-dihydropyridazin-4-yl)amino)pentyl)-7-fluoro-6-(5-(trifluoromethyl)pyrimidin-2-yl)isoquinolin-1(2H)-one]
14.2 nM | [2H]C([2H])([2H])OC[C@@H](CCCn1ccc2cc(-c3ncc(C(F)(F)F)cn3)c(F)cc2c1=O)Nc1cn[nH]c(=O)c1C(F)(F)F [Example 181, (R)-7-fluoro-2-(5-(methoxy-d3)-4-((6-oxo-5-(trifluoromethyl)-1,6-dihydropyridazin-4-yl)amino)pentyl)-6-(5-(trifluoromethyl)pyrimidin-2-yl)isoquinolin-1(2H)-one]
82.5 nM | O=c1[nH]ncc(N2Cc3ccccc3[C@H]2CCCn2ccc3cc(-c4ncc(C(F)(F)F)cn4)c(F)cc3c2=O)c1C(F)(F)F [Example 182, 7-fluoro-2-[3-[(1R)-2-[6-oxo-5-(trifluoromethyl)-1H-pyridazin-4-yl]isoindolin-1-yl]propyl]-6-[5-(trifluoromethyl)pyrimidin-2-yl]isoquinolin-1-one]
6.39 nM | O=c1[nH]ncc(N[C@H]2CCC[C@@H](Cn3ccc4cc(-c5ncc(C(F)(F)F)cn5)c(F)cc4c3=O)C2)c1C(F)(F)F [Example 183, 7-fluoro-2-[[(1R,3S)-3-[[6-oxo-5-(trifluoromethyl)-1H-pyridazin-4-yl]amino]cyclohexyl]methyl]-6-[5-(trifluoromethyl)pyrimidin-2-yl]isoquinolin-1-one]
14.7 nM | C[C@@H](CCCn1cnc2cc(-c3ncc(C(F)(F)F)c(N4CCC4)n3)c(F)cc2c1=O)Nc1cn[nH]c(=O)c1C(F)(F)F [Example 189, (S)-7-(4-(azetidin-1-yl)-5-(trifluoromethyl)pyrimidin-2-yl)-6-fluoro-3-(4-((6-oxo-5-(trifluoromethyl)-1,6-dihydropyridazin-4-yl)amino)pentyl)quinazolin-4(3H)-one]
29.9 nM | C[C@@H](CCCn1cnc2cc(-c3ncc(C(F)(F)F)c(N4CC(C)(O)C4)n3)c(F)cc2c1=O)Nc1cn[nH]c(=O)c1C(F)(F)F [Example 190, (S)-6-fluoro-7-(4-(3-hydroxy-3-methylazetidin-1-yl)-5-(trifluoromethyl)pyrimidin-2-yl)-3-(4-((6-oxo-5-(trifluoromethyl)-1,6-dihydropyridazin-4-yl)amino)pentyl)quinazolin-4(3H)-one]
29.1 nM | C[C@@H](CCCn1cnc2cc(-c3ncc(Cl)cn3)c(F)cc2c1=O)Nc1cn[nH]c(=O)c1C(F)(F)F [Example 200, (S)-7-(5-chloropyrimidin-2-yl)-6-fluoro-3-(4-((6-oxo-5-(trifluoromethyl)-1,6-dihydropyridazin-4-yl)amino)pentyl)quinazolin-4(3H)-one]
